Reference: patent EP0655506B1 (priority 1994, dated 1995)

The compounds below were run against T1, Taq DNA polymerase F667Y (Thermus aquaticus, UniProt P19821, F667Y) (assay: Gel electrophoresis-based rate of incorporation of dideoxynucleotides relative to deoxynucleotides, 1:1 ratio of dNTPs to ddNTPs (Example 6)). Conditions: 100 µM 4dNTPs and 100 µM of one ddNTP; 5 mM MgCl2; 70 °C.
T1 construct: to the gene that produces the full length Taq DNA polymerase; made in house
Format: biochemical
Source text: (§1) The primary application of this test is to determine the absolute ratio of incorporation of a ddNMP to a dNMP for a DNA polymerase that efficiently incorporates dideoxynucleotides, such as T7 DNA polymerase, E. coli DNA polymerase I mutant F762Y or Taq DNA polymerase mutant F667Y. It can also indicate the level of discrimination against ddNTPs of any DNA polymerase; however, for DNA polymerases that discriminate strongly against ddNTPs, such as T7 DNA polymerase mutant Y526F, E. coli DNA polymerase I or Taq DNA polymerase, higher ratios of ddNTP to dNTP are necessary to determine precisely their level of discrimination, which is described in detail in Example 7.
(§2) DNA synthesis reactions are carried out on the ^32P-end labeled 40 mer-M 13 mGP1-2 DNA template complex prepared as described in Example 3. Reaction conditions are used that are optimum for the DNA polymerase being tested with regard to buffer, pH, salts, and temperature of the reaction. A concentration of DNA polymerase is chosen whereby most of the primers are extended in a 10 min reaction and are terminated by the incorporation of a dideoxynucleotide. The reaction mixture contains 100 µM 4dNTPs and 100 µM of one of the four ddNTPs.
(§3) We used this test to compare the ability of six DNA polymerases to incorporate each of the four ddNMPs. The DNA polymerases tested were (1) T7 DNA polymerase with a 28 amino acid deletion in the exonuclease domain and complexed in a one-to-one ratio with thioredoxin (Tabor and Richardson 264 J. Biol. Chem. 6447, 1989) (referred to here as "T7 DNA polymerase"), (2) The large fragment of E. coli DNA polymerase I, commonly called the Klenow fragment (referred to here as "E. coli DNA polymerase I"), (3) Unmodified DNA polymerase from Thermus aquaticus (referred to here as "Taq DNA polymerase"), (4) T7 DNA polymerase as described above in which the tyrosine at residue 526 has been changed to a phenylalanine (referred to here as "T7 DNA polymerase Y526F"), (5) E. coli DNA polymerase I as described above in which the phenylalanine at residue 762 has been changed to a tyrosine (referred to here as "E. coli DNA polymerase I F762Y"), and (6) Taq DNA polymerase as described above in which the phenylalanine at residue 667 has been changed to a tyrosine (referred to here as "Taq DNA polymerase F667Y").
(§4) The reaction mixtures also contained 10 ng of yeast inorganic pyrophosphatase to inhibit pyrophosphorolysis that could otherwise increase the apparent discrimination by the DNA polymerase (Tabor and Richardson 265 j. Biol. Chem. 8322, 1990). The reactions were initiated by the addition of 2 µl of each DNA polymerase, diluted in 20 mM TrisHCl, pH 7.5, 10 mM 2-mercaptoethanol and 0.05% bovine serum albumin to a concentration of approximately 0.025 units/µl. The concentration of each DNA polymerase was sufficient to extend most of the labeled primers by more than 500 nucleotides in the absence of ddNTPs in a 15 min reaction. The reaction mixtures were incubated for 15 min at either 37 °C (T7 DNA polymerase, T7 DNA polymerase Y526F, E. coli DNA polymerase I, and E. coli DNA polymerase F762Y) or 70 °C (Taq DNA polymerase and Taq DNA polymerase F667Y). The reactions were terminated by the addition of 10 µl 90% formamide, 20 mM EDTA, 0.05% bromphenol blue. Each sample was heated at 90°C for 2 min immediately prior to loading 6 µl of each sample onto a gel consisting of 8% polyacrylamide, 0.4% N,N'-methylenebisacrylamide, 7 M urea in 100 mM Trisborate, pH 8.3, 1 mM EDTA. Electrophoresis was at 2000 Volts for 90 min (until the bromphenol blue had just run off the bottom of the gel). After electrophoresis, the gel was dried under vacuum, and autoradiographed. After autoradiography, the distribution of radioactively labeled fragments was determined by Phosphorimager analysis (Molecular Dynamics). […]

T1 sequence (P19821 whole entry F667Y): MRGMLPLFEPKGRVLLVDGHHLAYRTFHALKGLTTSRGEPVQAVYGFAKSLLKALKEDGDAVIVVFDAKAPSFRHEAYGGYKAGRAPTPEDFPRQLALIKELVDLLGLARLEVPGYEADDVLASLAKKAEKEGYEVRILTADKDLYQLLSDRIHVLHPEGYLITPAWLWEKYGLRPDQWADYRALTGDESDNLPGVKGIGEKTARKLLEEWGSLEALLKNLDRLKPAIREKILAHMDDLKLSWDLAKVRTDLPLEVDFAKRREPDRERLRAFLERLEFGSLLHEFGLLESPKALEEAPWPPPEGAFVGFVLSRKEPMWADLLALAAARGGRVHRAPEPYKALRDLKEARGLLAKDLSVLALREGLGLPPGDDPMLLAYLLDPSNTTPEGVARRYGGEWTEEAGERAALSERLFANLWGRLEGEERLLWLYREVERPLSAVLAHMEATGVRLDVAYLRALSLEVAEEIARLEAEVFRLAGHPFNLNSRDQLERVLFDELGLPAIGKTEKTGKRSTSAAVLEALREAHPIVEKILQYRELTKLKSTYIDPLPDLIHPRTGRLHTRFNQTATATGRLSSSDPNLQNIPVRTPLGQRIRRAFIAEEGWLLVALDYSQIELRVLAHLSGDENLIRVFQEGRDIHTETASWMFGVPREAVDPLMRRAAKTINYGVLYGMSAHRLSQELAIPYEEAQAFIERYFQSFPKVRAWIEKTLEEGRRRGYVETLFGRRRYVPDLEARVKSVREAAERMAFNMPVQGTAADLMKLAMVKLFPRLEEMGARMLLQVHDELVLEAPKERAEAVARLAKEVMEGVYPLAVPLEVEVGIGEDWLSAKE

SMILES	D, discrimination factor (ratio of the use of a specific dNTP to the use of the comparable ddNTP at equal concentrations)
Nc1ncnc2c1ncn2[C@H]1CC[C@@H](COP(=O)(O)OP(=O)(O)OP(=O)(O)O)O1 [ddATP]	0.59
Nc1ccn([C@H]2CC[C@@H](COP(=O)(O)OP(=O)(O)OP(=O)(O)O)O2)c(=O)n1 [ddCTP]	0.32
Nc1nc2c(ncn2[C@H]2CC[C@@H](COP(=O)(O)OP(=O)(O)OP(=O)(O)O)O2)c(=O)[nH]1 [ddGTP]	0.45
Cc1cn([C@H]2CC[C@@H](COP(=O)(O)OP(=O)(O)OP(=O)(O)O)O2)c(=O)[nH]c1=O [ddTTP]	0.56

Same assay, conditions: absolute ratios obtained in Example 6 (1:1 dNTPs to ddNTPs)

SMILES	Incorporation Rate Ratios (dN/ddN)
Nc1ncnc2c1ncn2[C@H]1CC[C@@H](COP(=O)(O)OP(=O)(O)OP(=O)(O)O)O1 [ddATP]	0.59
Nc1ccn([C@H]2CC[C@@H](COP(=O)(O)OP(=O)(O)OP(=O)(O)O)O2)c(=O)n1 [ddCTP]	0.32
Nc1nc2c(ncn2[C@H]2CC[C@@H](COP(=O)(O)OP(=O)(O)OP(=O)(O)O)O2)c(=O)[nH]1 [ddGTP]	0.45
Cc1cn([C@H]2CC[C@@H](COP(=O)(O)OP(=O)(O)OP(=O)(O)O)O2)c(=O)[nH]c1=O [ddTTP]	0.56

These compounds were tested against T2, E. coli DNA polymerase I (Klenow fragment) F762Y (Escherichia coli, UniProt P00582, F762Y) in the same assay as above. Conditions: 100 µM 4dNTPs and 100 µM of one ddNTP; 5 mM MgCl2; 37 °C.
T2 construct: The large fragment of E. coli DNA polymerase I, commonly called the Klenow fragment; made in house; T7 RNA polymerase promoter; purified by ion exchange chromatography
Format: biochemical
Source text: as §1, §2, §3, §4

T2 sequence (P00582 324-928 F762Y): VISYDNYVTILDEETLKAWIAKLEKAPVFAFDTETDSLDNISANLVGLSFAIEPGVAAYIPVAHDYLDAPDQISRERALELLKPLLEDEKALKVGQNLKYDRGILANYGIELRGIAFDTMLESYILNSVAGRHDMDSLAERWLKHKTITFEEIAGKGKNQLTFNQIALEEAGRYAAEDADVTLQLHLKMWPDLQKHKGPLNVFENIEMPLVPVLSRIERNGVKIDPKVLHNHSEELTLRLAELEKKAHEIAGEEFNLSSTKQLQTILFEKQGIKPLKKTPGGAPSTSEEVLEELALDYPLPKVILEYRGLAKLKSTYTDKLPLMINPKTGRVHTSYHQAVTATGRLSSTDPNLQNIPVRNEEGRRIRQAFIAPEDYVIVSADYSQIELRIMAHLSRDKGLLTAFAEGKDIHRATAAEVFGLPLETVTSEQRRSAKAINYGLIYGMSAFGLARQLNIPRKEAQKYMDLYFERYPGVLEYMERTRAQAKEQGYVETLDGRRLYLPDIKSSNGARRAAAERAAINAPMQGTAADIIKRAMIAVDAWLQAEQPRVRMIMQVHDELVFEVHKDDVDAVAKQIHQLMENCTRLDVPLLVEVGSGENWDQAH

SMILES	D, discrimination factor (ratio of the use of a specific dNTP to the use of the comparable ddNTP at equal concentrations)
Nc1ncnc2c1ncn2[C@H]1CC[C@@H](COP(=O)(O)OP(=O)(O)OP(=O)(O)O)O1 [ddATP]	0.72
Nc1ccn([C@H]2CC[C@@H](COP(=O)(O)OP(=O)(O)OP(=O)(O)O)O2)c(=O)n1 [ddCTP]	0.75
Nc1nc2c(ncn2[C@H]2CC[C@@H](COP(=O)(O)OP(=O)(O)OP(=O)(O)O)O2)c(=O)[nH]1 [ddGTP]	0.56
Cc1cn([C@H]2CC[C@@H](COP(=O)(O)OP(=O)(O)OP(=O)(O)O)O2)c(=O)[nH]c1=O [ddTTP]	0.54

Same assay, conditions: absolute ratios obtained in Example 6 (1:1 dNTPs to ddNTPs)

SMILES	Incorporation Rate Ratios (dN/ddN)
Nc1ncnc2c1ncn2[C@H]1CC[C@@H](COP(=O)(O)OP(=O)(O)OP(=O)(O)O)O1 [ddATP]	0.72
Nc1ccn([C@H]2CC[C@@H](COP(=O)(O)OP(=O)(O)OP(=O)(O)O)O2)c(=O)n1 [ddCTP]	0.75
Nc1nc2c(ncn2[C@H]2CC[C@@H](COP(=O)(O)OP(=O)(O)OP(=O)(O)O)O2)c(=O)[nH]1 [ddGTP]	0.56
Cc1cn([C@H]2CC[C@@H](COP(=O)(O)OP(=O)(O)OP(=O)(O)O)O2)c(=O)[nH]c1=O [ddTTP]	0.54
